Experimental data from patent publication US4916220A, “Palmitoyl-fructose-1,6-diphosphate, its therapeutic use and relevant preparation methods” (Biomedica Foscama Industria Chimico-Farmaceutica, priority 1988, dated 1990).
Where two headings read alike, the source gives them in different places.

Tests used:
perfused rat heart = assay: Action on perfused rat heart (inotropic and chronotropic); assay type: cell-based; conditions: for EC50: biphasic inotropic and chronotropic effect, read-out: ED50 (perfused rat heart); for action on perfused heart (inotropic and chronotropic): result in words, final concentration
[1] = tested on: entrance of ^45Ca in small slices of heart; assay: Effect on the entrance of ^45Ca in small slices of heart; assay type: cell-based; conditions: 3 min. at 25° C., 0.5 mM Ca; for effect on the entrance of ^45Ca: result in words
Protocol: The effect on the entrance of ^45 Ca in small slices of heart incubated for 3 min. at 25° C. with 0.5 mM Ca is inhibitory both with FDP and with DPF and therefore both seem to protect the tissue from the anoxy occurring with the entrance of Ca.

[2] = tested on: organs (heart, kidneys, liver); assay: Radioactivity accumulated in organs after administration per os to rats; assay type: in vivo, rat; conditions: 3,000,000 dpm total, 1 hour after administration
Protocol: The administration to rats of ^14 C-FDP and ^14 C-DPF per os (3,000,000 dpm total) allowed measurement of the radioactivity accumulated 1 hour after administration at the level of the organs and the results are reported in Table 2.

[3] = tested on: small slices of rat heart; assay: Attack of ^14C-FDP and ^14C-DPF to small slices of rat heart; assay type: cell-based; conditions: for Attack to small slices of rat heart: 5 mM, 40 min incubation at 25° C., 3 tests average
Excerpt: Small slices of rat heart were used to study comparatively the attack of ^14 C-FDP and ^14 C-DPF, the latter obtained by palmitoylation of a mixture of "hot" and "cold" FDP.

For `O=C(COP(=O)(O)O)[C@@H](O)[C@H](O)[C@H](O)COP(=O)(O)O` [FDP, fructose-1,6-diphosphate], the EC50 (perfused rat heart; Rattus norvegicus) was 100 µM, the “action on perfused heart (inotropic and chronotropic)” value (perfused rat heart) was “biphasic, i.e. inotropic and chronotropic, positive at concentrations lower than 1 mM (final) and negative for higher concentrations” and the “effect on the entrance of ^45Ca” value [1] was “inhibitory”. The IC50 ([1]; 0.05 h) was 8000 µM, the “Accumulation of radioactivity, Heart” value [2] was 508 and the “Accumulation of radioactivity, Kidneys” value [2] was 395. For the same compound, the “Accumulation of radioactivity, Liver” value [2] was 624 and the “Attack to small slices of rat heart” value [3] was 260 ± 20 nmoles/100 mg.
With “palmitoyl-fructose-1,6-diphosphate [DPF]” the EC50 (perfused rat heart) was 40 µM, the “action on perfused heart (inotropic and chronotropic)” value (perfused rat heart) was “biphasic effect but its effect appears at lower doses” and the IC50 [1] was 5500 µM. For the same compound, the “effect on the entrance of ^45Ca” value [1] was “inhibitory”, the “Accumulation of radioactivity, Heart” value [2] was 1620 and the “Accumulation of radioactivity, Kidneys” value [2] was 1324. The “Accumulation of radioactivity, Liver” value [2] was 1434, the “Attack to small slices of rat heart” value [3] was 344 ± 16 nmoles/100 mg and the “membrane affinity higher than that of FDP” value ([3]; relative to FDP) was 30%.
